In US9302999B2, “Substituted triazoles as herbicides” (E. I. DU PONT DE NEMOURS AND COMPANY, priority 2012, dated 2016):

Key:
[1] = system: barley (winter barley, Hordeum vulgare); test: Test C postemergence: barley; assay type: in vivo
Source text: At the same time, plants selected from these crop and weed species and also barley (winter barley, Hordeum vulgare), canarygrass (Phalaris minor), chickweed (common chickweed, Stellaria media) windgrass (Apera spica-venti) and deadnettle (henbit deadnettle, Lamium amplexicaule) were planted in pots containing Redi-Earth® planting medium (Scotts Company, 14111 Scottslawn Road, Marysville, Ohio 43041) comprising spaghnum peat moss, vermiculite, wetting agent and starter nutrients and treated with postemergence applications of test chemicals formulated in the same manner. Plants ranged in height from 2 to 18 cm (1- to 4-leaf stage) for postemergence treatments.
Treated plants and controls were maintained in a greenhouse for 13 to 15 days, after which time all species were compared to controls and visually evaluated. Plant response ratings, summarized in Table C, are based on a scale of 0 to 100 where 0 is no effect and 100 is complete control. A dash (-) response means no test result.

[2] = system: galium (catchweed bedstraw, Galium aparine); test: Test D pre-/postemergence: galium; assay type: in vivo
Source text: Seeds of plant species selected from bluegrass (annual bluegrass, Poa annua), blackgrass (Alopecurus myosuroides), canarygrass (Phalaris minor), chickweed (common chickweed, Stellaria media), galium (catchweed bedstraw, Galium aparine), bromegrass, downy (downy bromegrass, Bromus tectorum), field poppy (Papaver rhoeas), field violet (Viola arvensis), foxtail, green (green foxtail, Setaria viridis), deadnettle (henbit deadnettle, Lamium amplexicaule), ryegrass, Italian (Italian ryegrass, Lolium multiflorum), kochia (Kochia scoparia), lambsquarters (Chenopodium album), oilseed rape (Brassica napus), pigweed (Amaranthus retroflexus), Russian thistle (Salsola iberica), chamomile (scentless chamomile, Matricaria inodora), speedwell (bird's-eye speedwell, Veronica persica), barley, spring (spring barley, Hordeum vulgare), wheat, spring (spring wheat, Triticum aestivum), buckwheat, wild (wild buckwheat, Polygonum convolvulus), mustard, wild (wild mustard, Sinapis arvensis), oat, wild (wild oat, Avena fatua), radish, wild (wild radish, Raphanus raphanistrum), windgrass (Apera spica-venti), barley, winter (winter barley, Hordeum vulgare), and wheat, winter (winter wheat, Triticum aestivum) were planted into a silt loam soil and treated preemergence with test chemicals formulated in a non-phytotoxic solvent mixture which included a surfactant. At the same time, these same crop and weed species were planted in pots containing the planting medium comprising spaghnum peat moss, vermiculite, wetting agent and starter nutrients and treated with postemergence applications of the test chemicals formulated in the same manner. Plants ranged in height from 2 to 18 cm (1- to 4-leaf stage).
Treated plants and controls were maintained in a controlled growth environment for 14 to 21 days after which time all species were compared to controls and visually evaluated. Plant response ratings, summarized in Table D, are based on a scale of 0 to 100 where 0 is no effect and 100 is complete control. A dash (-) response means no test result.

[3] = 31 g ai/ha, scale 0 to 100 (0 no effect, 100 complete control)
[4] = 62 g ai/ha, scale 0 to 100 (0 no effect, 100 complete control)
[5] = 125 g ai/ha, scale 0 to 100, 0 no effect, 100 complete control
[6] = Postemergence, 31 g ai/ha, scale 0 to 100 (0 no effect, 100 complete control)
[7] = Postemergence, 62 g ai/ha, scale 0 to 100 (0 no effect, 100 complete control)
[8] = Postemergence, 125 g ai/ha, scale 0 to 100, 0 no effect, 100 complete control
[9] = Postemergence, 250 g ai/ha, scale 0 to 100 (0 no effect, 100 complete control)
[10] = Postemergence, 16 g ai/ha, scale 0 to 100
[11] = Preemergence, 62 g ai/ha, scale 0 to 100
[12] = Preemergence, 125 g ai/ha, scale 0 to 100
[13] = Preemergence, 250 g ai/ha, scale 0 to 100

Row | Compound | Plant response rating, Barley [1, 3] | Plant response rating, Barley [1, 4] | Plant response rating, Barley [1, 5] | Plant response rating, Barley ([1]; 250 g ai/ha, scale 0 to 100) | Plant response rating: Galium [2, 6] | Plant response rating: Galium [2, 7] | Plant response rating: Galium [2, 8] | Plant response rating: Galium [2, 9] | Plant response rating, Galium [2, 10] | Plant response rating, Galium ([2]; Preemergence, 31 g ai/ha, scale 0 to 100, 0 no effect, 100 complete control) | Plant response rating, Galium [2, 11] | Plant response rating, Galium [2, 12] | Plant response rating, Galium [2, 13]
1 | FC(F)Oc1nn(-c2ccc(C(F)(F)F)cc2)nc1Cc1ccnc(C(F)(F)F)c1 [Compound 26] | 20 | 30 | 30 | 40 | – | – | – | – | – | – | – | – | –
2 | Cc1nn(-c2ccc(C(F)(F)F)cn2)nc1Cc1cccc(C(F)(F)F)c1 [Compound 106] | 15 | 25 | 35 | 40 | 40 | 40 | 40 | 60 | 20 | 0 | 0 | 40 | 80
3 | Cc1nn(-c2ccc(C(F)(F)F)cn2)nc1Oc1ccnc(C(F)(F)F)c1 [Compound 23] | 5 | 15 | 20 | 30 | 30 | 50 | 70 | 90 | 25 | – | – | – | –
4 | FC(F)(F)COc1nn(-c2ccc(C(F)(F)F)cc2)nc1Cc1ccnc(C(F)(F)F)c1 [Compound 14, 4-[[5-(2,2,2-trifluoroethoxy)-2-[4-(trifluoromethyl)phenyl]-2H-1,2,3-triazol-4-yl]methyl]-2-(trifluoromethyl)pyridine] | 30 | 35 | 50 | 50 | 45 | 55 | 55 | 70 | – | – | 0 | 100 | 100
5 | Fc1ccc(-n2nc(Cc3ccnc(C(F)(F)F)c3)c(OC(F)F)n2)cc1 [Compound 25] | 20 | 25 | 30 | 30 | – | – | – | – | – | – | – | – | –
6 | COc1nn(-c2ccc(C(F)(F)F)cc2)nc1Cc1ccnc(C(F)F)c1 [Compound 138] | 10 | 30 | 35 | 60 | 75 | 80 | 90 | 100 | 60 | – | – | – | –
7 | FC(F)(F)c1ccc(-n2nc(Cl)c(Cc3ccnc(C(F)(F)F)c3)n2)cc1 [Compound 28] | 10 | 15 | 20 | 35 | – | – | – | – | – | – | – | – | –
